target: T1, Full-length human recombinant N-term FLAG-tagged MASTL protein (Homo sapiens, UniProt Q96GX5); test: MASTL enzyme kinase assay (CHEF PhosphoSens); conditions: MASTL Ki (nM), 3 nM MASTL, 1 mM ATP, room temperature; geometric mean of at least 3 independent determinations (* denotes n = 2)
T1 sequence (Q96GX5 1-879): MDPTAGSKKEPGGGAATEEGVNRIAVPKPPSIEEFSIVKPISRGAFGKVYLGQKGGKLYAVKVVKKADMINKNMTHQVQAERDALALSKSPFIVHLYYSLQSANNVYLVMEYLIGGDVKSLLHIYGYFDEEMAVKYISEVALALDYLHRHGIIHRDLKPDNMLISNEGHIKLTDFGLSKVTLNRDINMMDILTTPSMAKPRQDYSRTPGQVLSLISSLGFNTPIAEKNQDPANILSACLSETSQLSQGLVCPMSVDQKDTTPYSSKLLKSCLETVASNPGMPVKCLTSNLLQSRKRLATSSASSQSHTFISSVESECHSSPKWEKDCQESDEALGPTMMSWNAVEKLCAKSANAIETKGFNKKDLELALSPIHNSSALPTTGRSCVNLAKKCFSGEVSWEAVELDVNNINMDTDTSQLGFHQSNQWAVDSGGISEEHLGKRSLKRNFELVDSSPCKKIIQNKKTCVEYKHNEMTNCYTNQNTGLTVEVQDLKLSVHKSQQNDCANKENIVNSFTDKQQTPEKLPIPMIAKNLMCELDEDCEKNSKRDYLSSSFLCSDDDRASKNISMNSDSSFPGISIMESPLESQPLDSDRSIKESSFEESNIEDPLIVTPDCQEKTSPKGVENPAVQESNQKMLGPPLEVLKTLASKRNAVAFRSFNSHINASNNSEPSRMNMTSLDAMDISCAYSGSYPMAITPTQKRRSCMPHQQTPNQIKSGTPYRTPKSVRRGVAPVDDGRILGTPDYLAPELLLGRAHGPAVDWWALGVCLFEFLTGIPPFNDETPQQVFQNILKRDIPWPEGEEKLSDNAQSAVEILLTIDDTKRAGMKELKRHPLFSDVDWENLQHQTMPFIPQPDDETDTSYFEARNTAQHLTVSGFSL
Excerpt: MASTL enzyme kinase assay was used to measure the inhibition constant (Ki) of Examples of the present invention.
Full-length human recombinant N-term FLAG-tagged MASTL protein (construct LJIC-3077G2), activated by CDK1, was produced at Pfizer Inc by expression in baculovirus-infected insect cells. All reagents were purchased from Sigma-Aldrich, Inc (St. Louis, MO), unless specified otherwise. Tween™ 20 detergent (10% Solution) was purchased from EMD Millipore Corp (Billerica, MA). The CHEF phosphoacceptor peptide substrate (AQT0693) was purchased from AssayQuant technologies, Inc (Marlboro, MA). […] The reactions contained 1 mM ATP and were initiated by the addition of enzyme. Initial reaction velocities were determined by following the fluorescence (λex=360 nm, λem=485 nm) of appropriate CHEF peptide substrate for 120 minutes in an end-point mode in a SpectraMax Paradigm Microplate Reader (Molecular Devices, LLC. San Jose, California). The extents of reactions were estimated to be <20%.

Row | Structure (SMILES) | Ki [nM]
1 | Cn1nncc1-c1cc2cc(Nc3cc(C(C)(N)CC(F)(F)F)ccn3)ncc2c(N)n1 (single isomer, unassigned) [Example 26, N^6-(4-(2-amino-4,4,4-trifluorobutan-2-yl)pyridin-2-yl)-3-(1-methyl-1H-1,2,3-triazol-5-yl)-2,7-naphthyridine-1,6-diamine] | 0.075
2 | CNC(C)(COC)c1ccnc(Nc2cc3cc(-c4cnnn4C)nc(N)c3cn2)c1 (single isomer, unassigned) [Example 33, N^6-(4-(1-methoxy-2-(methylamino)propan-2-yl)pyridin-2-yl)-3-(1-methyl-1H-1,2,3-triazol-5-yl)-2,7-naphthyridine-1,6-diamine] | 0.25
3 | CNC(c1ccnc(Nc2cc3cc(-c4cnnn4C)nc(N)c3cn2)c1)C(C)(C)C (single isomer, unassigned) [Example 35, N^6-(4-(2,2-dimethyl-1-(methylamino)propyl)pyridin-2-yl)-3-(1-methyl-1H-1,2,3-triazol-5-yl)-2,7-naphthyridine-1,6-diamine] | 0.32
4 | CNC1(c2ccnc(Nc3cc4cc(-c5cnnn5C)nc(N)c4cn3)c2)CCC1 [Example 24, 3-(1-methyl-1H-1,2,3-triazol-5-y1)-N^6-(4-(1-(methylamino)cyclobutyl)pyridin-2-yl)-2,7-naphthyridine-1,6-diamine] | 0.089
5 | Cn1nncc1-c1cc2cc(Nc3cc(C(C)(N)C(F)(F)F)ccn3)ncc2c(N)n1 (single isomer, unassigned) [Example 29, N^6-(4-(2-amino-1,1,1-trifluoropropan-2-yl)pyridin-2-yl)-3-(1-methyl-1H-1,2,3-triazol-5-yl)-2,7-naphthyridine-1,6-diamine] | 0.17
6 | CCC(N)(CC)c1cc(Nc2cc3cc(-c4cnnn4C)nc(N)c3cn2)ncn1 [Example 23, N^6-(6-(3-aminopentan-3-yl)pyrimidin-4-yl)-3-(1-methyl-1H-1,2,3-triazol-5-yl)-2,7-naphthyridine-1,6-diamine] | 0.057
7 | CCC1(NC)CCc2cnc(Nc3cc4cc(-c5cnnn5C)nc(N)c4cn3)cc21 (single isomer, unassigned) [Example 6, N^6-(5-ethyl-5-(methylamino)-6,7-dihydro-5H-cyclopenta[c]pyridin-3-yl)-3-(1-methyl-1H-1,2,3-triazol-5-yl)-2,7-naphthyridine-1,6-diamine] | 0.076
8 | CCC(N)c1cc(Nc2cc3cc(-c4cnnn4C)nc(N)c3cn2)ncc1C (single isomer, unassigned) [Example 13, N^6-(4-(1-aminopropyl)-5-methylpyridin-2-yl)-3-(1-methyl-1H-1,2,3-triazol-5-yl)-2,7-naphthyridine-1,6-diamine] | 0.065
9 | Cn1nncc1-c1cc2cc(Nc3cc(C(N)CC(F)(F)F)ccn3)ncc2c(N)n1 (single isomer, unassigned) [Example 18, N^6-(4-(1-amino-3,3,3-trifluoropropyl)pyridin-2-yl)-3-(1-methyl-1H-1,2,3-triazol-5-yl)-2,7-naphthyridine-1,6-diamine] | 0.088
10 | CNC(C)(c1ccnc(Nc2cc3cc(-c4cnnn4C)nc(N)c3cn2)c1)C1CC1 (single isomer, unassigned) [Example 19, N^6-(4-(1-cyclopropyl-1-(methylamino)ethyl)pyridin-2-yl)-3-(1-methyl-1H-1,2,3-triazol-5-yl)-2,7-naphthyridine-1,6-diamine] | 0.047
11 | Cn1nncc1-c1cc2cc(Nc3cc(C(C)(N)C(F)(F)F)ccn3)ncc2c(N)n1 (single isomer, unassigned) [Example 28, N^6-(4-(2-amino-1,1,1-trifluoropropan-2-yl)pyridin-2-yl)-3-(1-methyl-1H-1,2,3-triazol-5-yl)-2,7-naphthyridine-1,6-diamine] | 0.093
12 | CNC(C)(COC)c1ccnc(Nc2cc3cc(-c4cnnn4C)nc(N)c3cn2)c1 (single isomer, unassigned) [Example 32, N^6-(4-(1-methoxy-2-(methylamino)propan-2-yl)pyridin-2-yl)-3-(1-methyl-1H-1,2,3-triazol-5-yl)-2,7-naphthyridine-1,6-diamine] | 0.087
13 | CCn1nncc1-c1cc2cc(Nc3cc(C4(N)CCCC4)ccn3)ncc2c(N)n1 [Example 38, N^6-(4-(1-aminocyclopentyl)pyridin-2-yl)-3-(1-ethyl-1H-1,2,3-triazol-5-yl)-2,7-naphthyridine-1,6-diamine] | 0.019
14 | Cn1nncc1-c1cc2cc(Nc3cc(C(C)(N)CC(F)(F)F)ccn3)ncc2c(N)n1 (single isomer, unassigned) [Example 25, N^6-(4-(2-amino-4,4,4-trifluorobutan-2-yl)pyridin-2-yl)-3-(1-methyl-1H-1,2,3-triazol-5-yl)-2,7-naphthyridine-1,6-diamine] | 0.078
15 | CCC(N)c1cc(Nc2cc3cc(-c4cnnn4C)nc(N)c3cn2)ncc1C (single isomer, unassigned) [Example 14, N^6-(4-(1-aminopropyl)-5-methylpyridin-2-yl)-3-(1-methyl-1H-1,2,3-triazol-5-yl)-2,7-naphthyridine-1,6-diamine] | 0.098
16 | CCC1(NC)CCc2c1ccnc2Nc1cc2cc(-c3cnnn3C)nc(N)c2cn1 (single isomer, unassigned) [Example 3, N^6-(5-ethyl-5-(methylamino)-6,7-dihydro-5H-cyclopenta[c]pyridin-1-yl)-3-(1-methyl-1H-1,2,3-triazol-5-yl)-2,7-naphthyridine-1,6-diamine] | 0.36

The remaining compounds from weak to strong by Ki, led by results:

Row | Ki [nM] | Structure (SMILES)
17 | 0.47 | CCC1(NC)CCc2c1ccnc2Nc1cc2cc(-c3cnnn3C)nc(N)c2cn1 (single isomer, unassigned) [Example 4, N^6-(5-ethyl-5-(methylamino)-6,7-dihydro-5H-cyclopenta[c]pyridin-1-yl)-3-(1-methyl-1H-1,2,3-triazol-5-yl)-2,7-naphthyridine-1,6-diamine]
18 | 0.23 | CNC(c1ccnc(Nc2cc3cc(-c4cnnn4C)nc(N)c3cn2)c1)C(C)(C)C (single isomer, unassigned) [Example 34, N^6-(4-(2,2-dimethyl-1-(methylamino)propyl)pyridin-2-yl)-3-(1-methyl-1H-1,2,3-triazol-5-yl)-2,7-naphthyridine-1,6-diamine]
19 | 0.12 | Cn1nncc1-c1cc2cc(Nc3cc(C(N)CC(F)(F)F)ccn3)ncc2c(N)n1 (single isomer, unassigned) [Example 17, N^6-(4-(1-amino-3,3,3-trifluoropropyl)pyridin-2-yl)-3-(1-methyl-1H-1,2,3-triazol-5-yl)-2,7-naphthyridine-1,6-diamine]
20 | 0.073 | CNC1(c2ccnc(Nc3cc4cc(-c5cnnn5C)nc(N)c4cn3)c2)CCCC1 [Example 27, 3-(1-methyl-1H-1,2,3-triazol-5-y1)-N^6-(4-(1-(methylamino)cyclopentyl)pyridin-2-yl)-2,7-naphthyridine-1,6-diamine]
21 | 0.061 | CN(C)C(C)(C)c1ccnc(Nc2cc3cc(-c4cnnn4C)nc(N)c3cn2)c1 [Example 36, N^6-(4-(2-(dimethylamino)propan-2-yl)pyridin-2-yl)-3-(1-methyl-1H-1,2,3-triazol-5-yl)-2,7-naphthyridine-1,6-diamine]
22 | 0.059 | CCn1nncc1-c1cc2cc(Nc3cc(C(C)(C)NC)ccn3)ncc2c(N)n1 [Example 37, 3-(1-ethyl-1H-1,2,3-triazol-5-yl)-N^6-(4-(2-(methylamino)propan-2-yl)pyridin-2-yl)-2,7-naphthyridine-1,6-diamine]
23 | 0.049 | CNC(C)(c1ccnc(Nc2cc3cc(-c4cnnn4C)nc(N)c3cn2)c1)C1CC1 (single isomer, unassigned) [Example 20, N^6-(4-(1-cyclopropyl-1-(methylamino)ethyl)pyridin-2-yl)-3-(1-methyl-1H-1,2,3-triazol-5-yl)-2,7-naphthyridine-1,6-diamine]
24 | 0.036 | CNC(C)(c1ccnc(Nc2cc3cc(-c4cnnn4C)nc(N)c3cn2)c1)C(C)C (single isomer, unassigned) [Example 30, 3-(1-methyl-1H-1,2,3-triazol-5-yl)-N^6-(4-(3-methyl-2-(methylamino)butan-2-yl)pyridin-2-yl)-2,7-naphthyridine-1,6-diamine]
25 | 0.033 | CCC1(NC)CCc2cnc(Nc3cc4cc(-c5cnnn5C)nc(N)c4cn3)cc21 (single isomer, unassigned) [Example 5, N^6-(5-ethyl-5-(methylamino)-6,7-dihydro-5H-cyclopenta[c]pyridin-3-yl)-3-(1-methyl-1H-1,2,3-triazol-5-yl)-2,7-naphthyridine-1,6-diamine]
26 | 0.03 | CNC(C)(c1ccnc(Nc2cc3cc(-c4cnnn4C)nc(N)c3cn2)c1)C(C)C (single isomer, unassigned) [Example 31, 3-(1-methyl-1H-1,2,3-triazol-5-yl)-N^6-(4-(3-methyl-2-(methylamino)butan-2-yl)pyridin-2-yl)-2,7-naphthyridine-1,6-diamine]

Source: patent publication US20260258033A1, “2,7-Naphthyridine Compounds as MASTL Inhibitors” (Pfizer Inc., priority 2022, published 2026)
